Measured values published in patent publication US6737433B1, “1-N-phenylamino-1H-imidazole derivatives as aromatase inhibitors and pharmaceutical compositions containing them” (Laboratoire Theramex, priority 2002, dated 2004).
Where a name gives a salt, the structure may show the parent alone.

Legend:
human aromatase = target: T1, human aromatase (Homo sapiens, UniProt P11511); experiment: Inhibition of human aromatase in vitro in JEG-3 cells (3H-water release from 1β-3H-androstenedione); type: cell-based; settings: 10 nM 1β-3H-androstenedione, 2 h incubation
T1 construct: The JEG-3 cell line, derived from a human placental choriocarcinoma, is intrinsically very rich in human aromatase; endogenous in cells; host or cells: JEG-3 (human placental choriocarcinoma)
T1 sequence (P11511 1-503): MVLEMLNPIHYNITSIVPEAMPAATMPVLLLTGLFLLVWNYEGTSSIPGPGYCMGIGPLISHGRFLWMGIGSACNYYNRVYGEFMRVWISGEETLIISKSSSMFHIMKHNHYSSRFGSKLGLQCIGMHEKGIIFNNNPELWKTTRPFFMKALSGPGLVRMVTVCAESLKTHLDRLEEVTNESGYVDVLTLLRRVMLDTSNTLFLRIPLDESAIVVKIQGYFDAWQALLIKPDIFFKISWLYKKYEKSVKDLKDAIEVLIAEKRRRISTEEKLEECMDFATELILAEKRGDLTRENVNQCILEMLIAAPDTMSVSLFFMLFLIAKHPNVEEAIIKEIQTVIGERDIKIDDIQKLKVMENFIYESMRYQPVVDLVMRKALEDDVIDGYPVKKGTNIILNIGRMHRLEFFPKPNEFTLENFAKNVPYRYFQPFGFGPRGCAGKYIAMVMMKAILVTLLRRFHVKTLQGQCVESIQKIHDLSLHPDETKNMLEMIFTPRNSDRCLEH
Procedure: Stocks of JEG-3 cells are grown up to 80% of confluence as monolayers in plastic flasks in minimum Eagle's medium with 1 g/l glucose and 10% decomplemented fetal calf serum at pH 7.4 and 37° C., under a 5% CO2 atmosphere. Then, 24 hours before aromatase activity measurement, JEG-3 cells are distributed for seeding in 96-well microplates (60,000 to 100,000 viable cells in 100 μl of culture medium per well); 24 hours later, microplates are rinsed and fresh medium containing the radioactive aromatase substrate (1β-^3H-androstenedione, 10 nM) is added together with test compounds dissolved with 1% dimethylsulfoxyde in a test concentration range between 10^−11 and 10^−4 M in a total volume of 150 μl.
Two hours after the beginning of the incubation, 100 μl of the supernatants are transferred to homologous new 96-well microplates. A solution of dextran-coated charcoal (1%) is added in each well (100 μl/well); after standing for 10 minutes on ice, microplates are centrifuged (1500 g) for 10 more minutes at 4° C. All steroids, including the radioactive substrate and the newly biosynthesized estrogens, are trapped complexed by the charcoal; only the ^3H-water specifically formed during aromatisation of 1β-^3H-androstenedione, involving a specific oxidative step removing the 1β-^3H, remains in the supernatant at this stage.
Finally, aromatase activity is expressed in fmoles/μg DNA in 2 hours and aromatase inhibition in percentage of control incubation without inhibitors.

Row | Structure (SMILES) | IC50 (human aromatase) | melting point
1 | N#Cc1ccc(N(c2ccc(C(F)(F)F)cc2)n2ccnc2)cc1 [Example 5, 4-[N-(1H-imidazol-1-yl)-N-(4-trifluoromethylphenyl)amino]benzonitrile] | 0.54 ± 0.26 nM | 
2 | N#Cc1ccc(N(c2ccc(F)cc2)n2ccnc2)cc1 [Example 28, 4-[N-(1H-imidazol-1-yl)-N-(4-fluorophenyl)amino]benzonitrile] | 1.57 ± 0.74 nM | 113 °C
3 | N#Cc1ccc(CN(c2ccc(Br)cc2)n2ccnc2)cc1 [Example 21, 4-[N-(1H-imidazol-1-yl)-N-(4-bromophenyl)aminomethyl]benzonitrile] | 1.12 ± 0.55 nM | 138 °C
4 | Cc1cn(N(Cc2ccc(Br)cc2)c2ccc(C#N)cc2)cn1 [Example 30, 4-[N-(4-methyl-1H-imidazol-1-yl)-N-(4-bromophenylmethyl)amino]benzonitrile] | 1.16 ± 0.55 nM | 152 °C
5 | COc1ccc(CN(c2ccc(C#N)cc2)n2ccnc2)cc1F [Example 9, 4-[N-(1H-imidazol-1-yl)-N-(3-fluoro-4-methoxyphenylmethyl)amino]benzonitrile] | 0.16 ± 0.06 nM | 
6 | COc1ccc(CN(c2ccc(C#N)cc2)n2ccnc2)cc1 (as salt: hydrochloride) [Example 8, 4-[N-(1H-imidazol-1-yl)-N-(4-methoxyphenylmethyl)amino]benzonitrile] |  | 178 °C
7 | COc1ccc(CN(c2ccc(C#N)cc2)n2ccnc2)cc1OC (as salt: hydrochloride) [Example 12, 4-[N-(1H-imidazol-1-yl)-N-(3,4-dimethoxyphenylmethyl)amino]benzonitrile] |  | 167 °C
8 | N#Cc1ccc(CN(c2ccc(C#N)cc2)n2ccnc2)cc1 (as salt: hydrochloride) [Example 11, 4-[N-(1H-imidazol-1-yl)-N-(4-cyanophenylmethyl)amino]benzonitrile] |  | 195 °C
9 | N#Cc1ccc(N(Cc2ccc(Br)cc2)n2ccnc2)cc1 (as salt: hydrochloride) [Example 20, 4-[N-(1H-imidazol-1-yl)-N-(4-bromophenylmethyl)amino]benzonitrile] |  | 125 °C
10 | N#Cc1ccc(N(Cc2ccc(Br)cc2)n2ccnc2)cc1 [Example 20, 4-[N-(1H-imidazol-1-yl)-N-(4-bromophenylmethyl)amino]benzonitrile] | 0.22 ± 0.05 nM | 
11 | CS(=O)(=O)c1ccc(CN(c2ccc(C#N)cc2)n2ccnc2)cc1 [Example 16, 4-[N-(1H-imidazol-1-yl)-N-(4-methylsulfonylphenylmethyl)amino]benzonitrile] | 0.35 ± 0.07 nM | 
12 | Cc1ncn(N(Cc2ccc(Br)cc2)c2ccc(C#N)cc2)c1C [Example 32, 4-[N-(4,5-dimethyl-1H-imidazol-1-yl)-N-(4-bromophenylmethyl)amino]benzonitrile] |  | 150 °C
13 | N#Cc1ccc(N(Cc2cc(F)cc(F)c2)n2ccnc2)cc1 [Example 19, 4-[N-(1H-imidazol-1-yl)-N-(3,5-difluorophenylmethyl)amino]benzonitrile] | 0.4 ± 0.06 nM | 170 °C
14 | N#Cc1ccc(N(Cc2ccc(F)cc2F)n2ccnc2)cc1 [Example 18, 4-[N-(1H-imidazol-1-yl)-N-(2,4-difluorophenylmethyl)amino]benzonitrile] | 0.14 ± 0.01 nM | 149 °C
15 | N#Cc1ccc(CN(c2ccc(C#N)cc2C(F)(F)F)n2ccnc2)cc1 [Example 23, 4-[N-(1H-imidazol-1-yl)-N-(4-cyanophenylmethyl)amino]-3-trifluoromethylbenzonitrile] | 0.48 ± 0.13 nM | 226 °C
16 | COc1ccc(CN(c2ccc(C#N)cc2)n2ccnc2)cc1 [Example 8, 4-[N-(1H-imidazol-1-yl)-N-(4-methoxyphenylmethyl)amino]benzonitrile] | 0.14 ± 0.05 nM | 
17 | N#Cc1ccc(N(Cc2cccc(F)c2)n2ccnc2)cc1 [Example 26, 4-[N-(1H-imidazol-1-yl)-N-(3-fluorophenylmethyl)amino]benzonitrile] | 0.13 ± 0.05 nM | 112 °C
18 | CSc1ccc(CN(c2ccc(C#N)cc2)n2ccnc2)cc1 [Example 15, 4-[N-(1H-imidazol-1-yl)-N-(4-methylthiophenylmethyl)amino]benzonitrile] | 0.21 ± 0.05 nM | 128 °C
19 | N#Cc1ccc(N(Cc2ccccc2)n2ccnc2)cc1 [Example 24, 4-[N-(1H-imidazol-1-yl)-N-(phenylmethyl)amino]benzonitrile] | 0.18 ± 0.09 nM | 107 °C
20 | Cc1ccc(CN(c2ccc(C#N)cc2)n2ccnc2)cc1 [Example 10, 4-[N-(1H-imidazol-1-yl)-N-(4-methylphenylmethyl)amino]benzonitrile] | 0.14 ± 0.03 nM | 156 °C
21 | Cn1nnc2ccc(N(Cc3ccc(C#N)cc3)n3ccnc3)cc21 [Example 22, 4-[N-(1-methylbenzotriazol-6-yl)-N-(1H-imidazol-1-yl)aminomethyl]benzonitrile] | 0.2 ± 0.05 nM | 184 °C
22 | Cc1cncn1N(Cc1ccc(Br)cc1)c1ccc(C#N)cc1 [Example 31, 4-[N-(5-methyl-1H-imidazol-1-yl)-N-(4-bromophenylmethyl)amino]benzonitrile] | 0.58 ± 0.18 nM | 152 °C
23 | N#Cc1ccc(N(Cc2cccc(C(F)(F)F)c2)n2ccnc2)cc1 [Example 29, 4-[N-(1H-imidazol-1-yl)-N-(3-trifluoromethylphenylmethyl)amino]benzonitrile] | 0.19 ± 0.05 nM | 122 °C
24 | N#Cc1ccc(N(c2ccc(C#N)cc2)n2ccnc2)cc1 (as salt: hydrochloride) [Example 13, 4,4′-[N-(1H-imidazol-1-yl)amino]bis-benzonitrile] |  | 199 °C
25 | N#Cc1ccc(N(c2ccc(C#N)cc2C(F)(F)F)n2ccnc2)cc1 [Example 25, 4-[N-(1H-imidazol-1-yl)-N-(4-cyanophenyl)amino]-3-trifluoromethylbenzonitrile] | 0.66 ± 0.14 nM | 166 °C
26 | N#Cc1ccc(N(Cc2ccc(F)cc2)n2ccnc2)cc1 (as salt: hydrochloride) (hydrate or solvate) [Example 14, 4-[N-(1H-imidazol-1-yl)-N-(4-fluorophenylmethyl)amino]benzonitrile] |  | 176 to 178 °C
27 | N#Cc1ccc(N(Cc2ccc(Cl)cc2)n2ccnc2)cc1 (as salt: hydrochloride) [Example 7, 4-[N-(1H-imidazol-1-yl)-N-(4-chlorophenylmethyl)amino]benzonitrile] |  | 190 °C
28 | COC(=O)c1ccc(CN(c2ccc(C#N)cc2)n2ccnc2)cc1 [Example 27, Methyl 4-[N-(4-cyanophenyl)-N-(1H-imidazol-1-yl)aminomethyl]benzoate] |  | 178 °C
29 | COc1ccc(CN(c2ccc(C#N)cc2)n2ccnc2)cc1F (as salt: hydrochloride) [Example 9, 4-[N-(1H-imidazol-1-yl)-N-(3-fluoro-4-methoxyphenylmethyl)amino]benzonitrile] |  | 190 °C
30 | N#Cc1ccc(N(c2ccc(C#N)cc2)n2ccnc2)cc1 [Example 13, 4,4′-[N-(1H-imidazol-1-yl)amino]bis-benzonitrile] | 0.44 ± 0.04 nM | 
